Read-outs that look alike come from different tables or passages of the source.
Tests used:
[1] = system: cyclin D1; experiment: Cyclin D1 percentage degradation in Calu-1 cells (immunoblotting); format: cell-based; conditions: 200 nM, 16 hours
Outline: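 Cyclin D1 degradation was assessed by western blot. Clarified lysates, obtained by RIPA lysis with inhibitors and centrifugation at 13,000 rpm, were normalized by BCA protein assay and separated by SDS-PAGE. Bands were detected with Western ECL Substrate on a Bio-Rad ChemiDoc MP Imaging system and quantified in Image Lab software to derive percentage degradation.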

[2] = target: T1, CDK4 (Homo sapiens, UniProt P11802); experiment: CDK4 percentage degradation in Calu-1 cells (immunoblotting); format: cell-based; conditions: read-out: CDK4 Degradation (200 nM)
T1 construct: endogenous in cells; host or cells: Calu-1
Outline: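 CDK4 degradation was measured by immunoblotting. Cells were washed in cold PBS and lysed in RIPA buffer with inhibitors for 30 min at 4° C., then spun at 13,000 rpm to clear. After BCA protein determination, lysates were heated at 99° C. for 5 min in Laemmli buffer, resolved on SDS-PAGE, imaged on a ChemiDoc MP with ECL substrate, and band intensities quantified.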

T1 sequence (P11802 2-303 limits assumed): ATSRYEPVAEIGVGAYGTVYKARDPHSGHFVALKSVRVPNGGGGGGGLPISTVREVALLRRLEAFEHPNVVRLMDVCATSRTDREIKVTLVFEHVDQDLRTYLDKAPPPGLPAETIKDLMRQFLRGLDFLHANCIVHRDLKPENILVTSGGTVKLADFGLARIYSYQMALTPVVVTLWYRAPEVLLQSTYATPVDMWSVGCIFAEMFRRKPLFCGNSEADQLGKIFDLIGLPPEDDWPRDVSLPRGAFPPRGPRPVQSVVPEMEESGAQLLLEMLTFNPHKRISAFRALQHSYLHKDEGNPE
T1 sequence (P24385 whole entry partner): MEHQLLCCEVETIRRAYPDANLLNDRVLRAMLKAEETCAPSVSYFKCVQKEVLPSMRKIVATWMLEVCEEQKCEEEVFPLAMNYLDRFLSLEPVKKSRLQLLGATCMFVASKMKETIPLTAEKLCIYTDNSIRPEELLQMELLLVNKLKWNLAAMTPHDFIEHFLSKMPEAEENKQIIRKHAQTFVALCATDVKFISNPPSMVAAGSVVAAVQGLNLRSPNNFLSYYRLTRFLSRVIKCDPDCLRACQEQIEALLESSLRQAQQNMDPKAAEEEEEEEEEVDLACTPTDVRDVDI
T1 sequence (Q16531 2-1140 limits assumed, further chain): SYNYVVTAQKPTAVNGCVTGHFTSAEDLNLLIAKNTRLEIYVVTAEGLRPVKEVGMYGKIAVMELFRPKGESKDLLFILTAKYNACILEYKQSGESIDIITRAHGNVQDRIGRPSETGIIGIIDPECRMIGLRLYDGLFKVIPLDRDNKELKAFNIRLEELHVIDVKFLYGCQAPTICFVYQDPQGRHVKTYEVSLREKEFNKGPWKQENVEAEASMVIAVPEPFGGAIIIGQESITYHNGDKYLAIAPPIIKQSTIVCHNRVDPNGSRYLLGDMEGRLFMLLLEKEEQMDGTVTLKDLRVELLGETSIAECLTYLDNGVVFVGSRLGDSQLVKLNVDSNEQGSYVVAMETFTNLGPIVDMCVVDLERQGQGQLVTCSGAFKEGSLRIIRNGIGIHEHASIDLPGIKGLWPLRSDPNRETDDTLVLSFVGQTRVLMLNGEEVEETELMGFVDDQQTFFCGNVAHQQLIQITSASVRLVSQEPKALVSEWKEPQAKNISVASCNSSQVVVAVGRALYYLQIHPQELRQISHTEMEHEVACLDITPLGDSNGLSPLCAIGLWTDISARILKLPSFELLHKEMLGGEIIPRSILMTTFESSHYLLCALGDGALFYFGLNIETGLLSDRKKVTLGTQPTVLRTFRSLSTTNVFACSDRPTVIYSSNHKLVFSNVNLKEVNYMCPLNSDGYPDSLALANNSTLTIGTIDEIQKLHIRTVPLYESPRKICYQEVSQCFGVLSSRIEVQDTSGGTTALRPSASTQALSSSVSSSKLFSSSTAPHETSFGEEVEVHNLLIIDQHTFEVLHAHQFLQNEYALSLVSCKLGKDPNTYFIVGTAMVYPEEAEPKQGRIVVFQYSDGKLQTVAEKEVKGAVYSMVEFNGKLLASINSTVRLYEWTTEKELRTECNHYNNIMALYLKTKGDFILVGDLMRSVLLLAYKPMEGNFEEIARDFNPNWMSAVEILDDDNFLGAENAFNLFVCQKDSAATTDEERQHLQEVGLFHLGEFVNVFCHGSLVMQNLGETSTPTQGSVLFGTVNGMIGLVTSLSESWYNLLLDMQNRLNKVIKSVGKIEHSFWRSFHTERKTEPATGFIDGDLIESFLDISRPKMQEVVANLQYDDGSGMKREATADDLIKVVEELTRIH

Row | Compound | inhibition at 0.2 µM ([2]; Calu-1 cells, 200 nM, 16 hours) [%] | CyclinD1 Degradation (200 nM) [1] | inhibition at 0.2 µM ([2]; Calu-1, 16 h) [%]
1 | CC(=O)c1c(C)c2cnc(Nc3ccc(N4CCN(CC(=O)NCCOCCOCCNc5cccc(C(=O)Nc6cc(C)n(C)n6)c5C)CC4)cn3)nc2n(C2CCCC2)c1=O [CPD-067, 3-((2-(2-(2-(2-(4-(6-((6-Acetyl-8-cyclopentyl-5-methyl-7-oxo-7,8-dihydropyrido[2,3-d]pyrimidin-2-yl)amino)pyridin-3-yl)piperazin-1-yl)acetamido)ethoxy)ethoxy)ethyl)amino)-N-(1,5-dimethyl-1H-pyrazol-3-yl)-2-methylbenzamide] | 50 to 80 | A (protein percentage degradation >=80%) | 
2 | CC(=O)c1c(C)c2cnc(Nc3ccc(N4CCN(CC(=O)NCCOCCOCCC(=O)Nc5ccccc5C(=O)Nc5cc(C(F)(F)F)n(C)n5)CC4)cn3)nc2n(C2CCCC2)c1=O [CPD-069, 2-(3-(2-(2-(2-(4-(6-((6-Acetyl-8-cyclopentyl-5-methyl-7-oxo-7,8-dihydropyrido[2,3-d]pyrimidin-2-yl)amino)pyridin-3-yl)piperazin-1-yl)acetamido)ethoxy)ethoxy)propanamido)-N-(1-methyl-5-(trifluoromethyl)-1H-pyrazol-3-yl)benzamide] | < 30 | D (protein percentage degradation <30%) | 
3 | CC(=O)c1c(C)c2cnc(Nc3ccc(N4CCN(CC(=O)NCCOCCOCCC(=O)Nc5ccccc5C(=O)Nc5nc(C(C)C)c(C)s5)CC4)cn3)nc2n(C2CCCC2)c1=O [CPD-070, 2-(3-(2-(2-(2-(4-(6-((6-Acetyl-8-cyclopentyl-5-methyl-7-oxo-7,8-dihydropyrido[2,3-d]pyrimidin-2-yl)amino)pyridin-3-yl)piperazin-1-yl)acetamido)ethoxy)ethoxy)propanamido)-N-(4-isopropyl-5-methylthiazol-2-yl)benzamide] | > 80 | A (protein percentage degradation >=80%) | 
4 | CC(=O)c1c(C)c2cnc(Nc3ccc(N4CCN(CC(=O)NCCOCCOCCC(=O)Nc5ccccc5C(=O)Nc5nc(C6CCNCC6)c(C)s5)CC4)cn3)nc2n(C2CCCC2)c1=O [CPD-072, 2-(3-(2-(2-(2-(4-(6-((6-Acetyl-8-cyclopentyl-5-methyl-7-oxo-7,8-dihydropyrido[2,3-d]pyrimidin-2-yl)amino)pyridin-3-yl)piperazin-1-yl)acetamido)ethoxy)ethoxy)propanamido)-N-(5-methyl-4-(piperidin-4-yl)thiazol-2-yl)benzamide] | 50 to 80 | D (protein percentage degradation <30%) | 
5 | CCc1nc(NC(=O)c2ccccc2NC(=O)CCOCCOCCNC(=O)CN2CCN(c3ccc(Nc4ncc5c(C)c(C(C)=O)c(=O)n(C6CCCC6)c5n4)nc3)CC2)sc1C [CPD-075, 2-(3-(2-(2-(2-(4-(6-((6-Acetyl-8-cyclopentyl-5-methyl-7-oxo-7,8-dihydropyrido[2,3-d]pyrimidin-2-yl)amino)pyridin-3-yl)piperazin-1-yl)acetamido)ethoxy)ethoxy)propanamido)-N-(4-ethyl-5-methylthiazol-2-yl)benzamide] | > 80 | A (protein percentage degradation >=80%) | 
6 | CC(=O)c1c(C)c2cnc(Nc3ccc(N4CCN(CC(=O)NCCOCCOCCC(=O)Nc5ccccc5C(=O)Nc5nc(C(F)(F)F)c(C)s5)CC4)cn3)nc2n(C2CCCC2)c1=O [CPD-077, 2-(3-(2-(2-(2-(4-(6-((6-Acetyl-8-cyclopentyl-5-methyl-7-oxo-7,8-dihydropyrido[2,3-d]pyrimidin-2-yl)amino)pyridin-3-yl)piperazin-1-yl)acetamido)ethoxy)ethoxy)propanamido)-N-(5-methyl-4-(trifluoromethyl)thiazol-2-yl)benzamide] | 50 to 80 | D (protein percentage degradation <30%) | 
7 | CC(=O)c1c(C)c2cnc(Nc3ccc(N4CCN(CCCCCCCCCCNc5cccc(C(=O)Nc6nc(C)c(C)s6)c5C)CC4)cn3)nc2n(C2CCCC2)c1=O [CPD-078, 3-((10-(4-(6-((6-Acetyl-8-cyclopentyl-5-methyl-7-oxo-7,8-dihydropyrido[2,3-d]pyrimidin-2-yl)amino)pyridin-3-yl)piperazin-1-yl)decyl)amino)-N-(4,5-dimethylthiazol-2-yl)-2-methylbenzamide] |  | D (protein percentage degradation <30%) | < 30

More lines, main results first:

Row | inhibition at 0.2 µM ([2]; Calu-1 cells, 200 nM, 16 hours) [%] | Compound | CyclinD1 Degradation (200 nM) [1] | inhibition at 0.2 µM ([2]; Calu-1, 16 h) [%]
8 | < 30 | CC(=O)c1c(C)c2cnc(Nc3ccc(N4CCN(CC(=O)NCCOCCOCCC(=O)Nc5ccccc5C(=O)Nc5cn(C)cn5)CC4)cn3)nc2n(C2CCCC2)c1=O [CPD-063, 2-(3-(2-(2-(2-(4-(6-((6-Acetyl-8-cyclopentyl-5-methyl-7-oxo-7,8-dihydropyrido[2,3-d]pyrimidin-2-yl)amino)pyridin-3-yl)piperazin-1-yl)acetamido)ethoxy)ethoxy)propanamido)-N-(1-methyl-1H-imidazol-4-yl)benzamide] | D (protein percentage degradation <30%) | 
9 | < 30 | CC(=O)c1c(C)c2cnc(Nc3ccc(N4CCN(CC(=O)NCCOCCOCCC(=O)Nc5ccccc5C(=O)Nc5ncc(C)[nH]5)CC4)cn3)nc2n(C2CCCC2)c1=O [CPD-064, 2-(3-(2-(2-(2-(4-(6-((6-Acetyl-8-cyclopentyl-5-methyl-7-oxo-7,8-dihydropyrido[2,3-d]pyrimidin-2-yl)amino)pyridin-3-yl)piperazin-1-yl)acetamido)ethoxy)ethoxy)propanamido)-N-(5-methyl-1H-imidazol-2-yl)benzamide] | D (protein percentage degradation <30%) | 
10 | 50 to 80 | CC(=O)c1c(C)c2cnc(Nc3ccc(N4CCN(CC(=O)NCCOCCOCCC(=O)Nc5ccccc5C(=O)Nc5ccc(C)s5)CC4)cn3)nc2n(C2CCCC2)c1=O [CPD-065, 2-(3-(2-(2-(2-(4-(6-((6-Acetyl-8-cyclopentyl-5-methyl-7-oxo-7,8-dihydropyrido[2,3-d]pyrimidin-2-yl)amino)pyridin-3-yl)piperazin-1-yl)acetamido)ethoxy)ethoxy)propanamido)-N-(5-methylthiophen-2-yl)benzamide] | A (protein percentage degradation >=80%) | 
11 | < 30 | CC(=O)c1c(C)c2cnc(Nc3ccc(N4CCN(CC(=O)NCCOCCOCCC(=O)Nc5ccccc5C(=O)Nc5ncc(C)o5)CC4)cn3)nc2n(C2CCCC2)c1=O [CPD-066, 2-(3-(2-(2-(2-(4-(6-((6-Acetyl-8-cyclopentyl-5-methyl-7-oxo-7,8-dihydropyrido[2,3-d]pyrimidin-2-yl)amino)pyridin-3-yl)piperazin-1-yl)acetamido)ethoxy)ethoxy)propanamido)-N-(5-methyloxazol-2-yl)benzamide] | D (protein percentage degradation <30%) | 
12 | 50 to 80 | CC(=O)c1c(C)c2cnc(Nc3ccc(N4CCN(CC(=O)NCCOCCOCCC(=O)Nc5ccccc5C(=O)Nc5ccn(C)n5)CC4)cn3)nc2n(C2CCCC2)c1=O [CPD-068, 2-(3-(2-(2-(2-(4-(6-((6-Acetyl-8-cyclopentyl-5-methyl-7-oxo-7,8-dihydropyrido[2,3-d]pyrimidin-2-yl)amino)pyridin-3-yl)piperazin-1-yl)acetamido)ethoxy)ethoxy)propanamido)-N-(1-methyl-1H-pyrazol-3-yl)benzamide] | A (protein percentage degradation >=80%) | 
13 | > 80 | CC(=O)c1c(C)c2cnc(Nc3ccc(N4CCN(CC(=O)NCCOCCOCCC(=O)Nc5ccccc5C(=O)Nc5nc(Br)c(C)s5)CC4)cn3)nc2n(C2CCCC2)c1=O [CPD-071, 2-(3-(2-(2-(2-(4-(6-((6-Acetyl-8-cyclopentyl-5-methyl-7-oxo-7,8-dihydropyrido[2,3-d]pyrimidin-2-yl)amino)pyridin-3-yl)piperazin-1-yl)acetamido)ethoxy)ethoxy)propanamido)-N-(4-bromo-5-methylthiazol-2-yl)benzamide] | A (protein percentage degradation >=80%) | 
14 | 50 to 80 | CC(=O)c1c(C)c2cnc(Nc3ccc(N4CCN(CC(=O)NCCOCCOCCC(=O)Nc5ccccc5C(=O)Nc5cc[nH]n5)CC4)cn3)nc2n(C2CCCC2)c1=O [CPD-073, 2-(3-(2-(2-(2-(4-(6-((6-Acetyl-8-cyclopentyl-5-methyl-7-oxo-7,8-dihydropyrido[2,3-d]pyrimidin-2-yl)amino)pyridin-3-yl)piperazin-1-yl)acetamido)ethoxy)ethoxy)propanamido)-N-(1H-pyrazol-3-yl)benzamide] | D (protein percentage degradation <30%) | 
15 | 50 to 80 | CC(=O)c1c(C)c2cnc(Nc3ccc(N4CCN(CC(=O)NCCOCCOCCC(=O)Nc5ccccc5C(=O)Nc5cc(C)[nH]n5)CC4)cn3)nc2n(C2CCCC2)c1=O [CPD-074, 2-(3-(2-(2-(2-(4-(6-((6-Acetyl-8-cyclopentyl-5-methyl-7-oxo-7,8-dihydropyrido[2,3-d]pyrimidin-2-yl)amino)pyridin-3-yl)piperazin-1-yl)acetamido)ethoxy)ethoxy)propanamido)-N-(5-methyl-1H-pyrazol-3-yl)benzamide] | B (protein percentage degradation <80%, and >=50%) | 
16 | 50 to 80 | CC(=O)c1c(C)c2cnc(Nc3ccc(N4CCN(CC(=O)NCCOCCOCCC(=O)Nc5ccccc5C(=O)Nc5cc(C)n(C(C)C)n5)CC4)cn3)nc2n(C2CCCC2)c1=O [CPD-076, 2-(3-(2-(2-(2-(4-(6-((6-Acetyl-8-cyclopentyl-5-methyl-7-oxo-7,8-dihydropyrido[2,3-d]pyrimidin-2-yl)amino)pyridin-3-yl)piperazin-1-yl)acetamido)ethoxy)ethoxy)propanamido)-N-(1-isopropyl-5-methyl-1H-pyrazol-3-yl)benzamide] | C (protein percentage degradation <50%, and >=30%) | 
